Consider 5 compounds from publication PMC12221116, “Novel Quinazolinones Active against Multidrug‐Resistant Mycobacterium Tuberculosis: Synthesis, Antimicrobial Evaluation, and in Silico Exploration of Penicillin‐Binding Protein 1A as a Potential Target” (Chemmedchem, 2025).

Molecules are shown by their SMILES. Values after ≈ are worked out from the molar mass of the structure shown. Values joined by “and” are separate entries in the source; they are usually repeats but may differ in a detail not shown here. Identical values can stand only once. Like-named read-outs stand apart in the source and are kept apart here.

Usually EC50 stands for the midpoint of the concentration-response curve. For orientation: AC50 means the midpoint of the concentration-response curve, whichever way the signal moves. One may read the MIC as the lowest concentration found to suppress growth.

The test system of one assay is Protein RecA. Set-up: method as in ChEMBL. The note with it: target CHEMBL1741171; ref ChEMBL; cited from earlier work.
The target of another assay is Replicative DNA helicase. Details: method as in ChEMBL. Conditions: target CHEMBL1741192; ref ChEMBL; cited from earlier work.
Assay [1] has as its system Mycobacterium tuberculosis. Conditions: target CHEMBL360; ref ChEMBL; cited from earlier work.
In assay [2] the test system is Enterococcus faecalis ATCC 29212, CCM 4224. In words: Antibacterial microdilution broth, quality standards. Type of assay: cell-based. Conditions: 24 h.
Assay [3] has as its system Klebsiella pneumoniae ATCC 10031, CCM 4415. Described as above. The note with it: 24 h. The class given is cell-based.
Assay [4] has as its system Pseudomonas aeruginosa ATCC 27853, CCM 3955. Described as above. Type of assay: cell-based. Conditions: 24 h.
The test system of assay [5] is Staphylococcus aureus subsp. aureus ATCC 29213, CCM 4223. The description is as above. Type of assay: cell-based. Conditions: 24 h.
Assay [6] concerns Staphylococcus epidermidis ATCC 12228, CCM 4418. The assay is described as above. Conditions: 24 h. Type of assay: cell-based.
Assay [7] concerns Staphylococcus aureus subsp. aureus, MRSA ATCC 43300, CCM 4750. Described as above. Type of assay: cell-based. Conditions: 24 h.
Assay [8] has as its system Acinetobacter baumannii ATCC 19606, DSM 30007. Described as above. Type of assay: cell-based. Conditions: 24 h.
For assay [9], the system named is Escherichia coli ATCC 25922, CCM 3954. The description is as above. The note with it: 24 h. The class given is cell-based.

Turning to `O=c1c2ccccc2nc(/C=C/c2cccnc2)n1CCc1ccccc1` [CHEMBL1366795], in the assay with Protein RecA, the EC50 is 12 µM.
For the compound `O=c1c2ccccc2nc(/C=C/c2cccnc2)n1Cc1ccccc1` [CHEMBL1567670], the AC50 at Replicative DNA helicase was 13.6 µM and 9.29 µM. For the same compound, in the assay on Protein RecA, the concentration giving a half-maximal response (EC50) was 9.92 µM.
As for `Cc1nc2ccc(-c3ccccc3)cc2c(=O)n1-c1ccccc1` [CHEMBL4442905], the “MIC Mycobacterium tuberculosis” value in assay [1] was more than 64 µg/mL.
On to `C#CCNc1ccc2c(=O)n(-c3ccccc3)c(C)nc2c1` [CHEMBL4444032], for which the “MIC Mycobacterium tuberculosis” value in assay [1] was 4 µg/mL (≈ 13.8 µM).
For the compound `CNC(C)C1CCC(N)C(OC2C(N)CC(N)C(OC3OCC(C)(O)C(NC)C3O)C2O)O1` (stereo not drawn) [gentamicin], the minimal inhibitory concentration (MIC) in assay [2] (read-out: MIC spectrophotometric detection, E. faecalis) is 16 µg/mL (≈ 33.5 µM); in [2] (naked eye, read-out: MIC visual detection, E. faecalis), 8 µg/mL (≈ 16.8 µM); in assay [3] (95% growth inhibition, read-out: MIC spectrophotometric detection, K. pneumoniae) it was more than 8 µg/mL; in assay [3] (naked eye, read-out: MIC visual detection, K. pneumoniae) it was more than 8 µg/mL; in assay [4] (95% growth inhibition, read-out: MIC spectrophotometric detection, P. aeruginosa) it was 0.5 µg/mL (≈ 1.05 µM); in assay [4] (naked eye, read-out: MIC visual detection, P. aeruginosa), 0.5 µg/mL (≈ 1.05 µM). In addition, the MIC in assay [5] (95% growth inhibition, read-out: MIC spectrophotometric detection, S. aureus) is 1 µg/mL (≈ 2.09 µM); in assay [5] (naked eye, read-out: MIC visual detection, S. aureus), 1 µg/mL (≈ 2.09 µM); in assay [6] (95% growth inhibition, read-out: MIC spectrophotometric detection, S. epidermidis), more than 8 µg/mL; in [6] (naked eye, read-out: MIC visual detection, S. epidermidis), more than 8 µg/mL; in [7] (95% growth inhibition, read-out: MIC spectrophotometric detection, MRSA), 16 to 32 µg/mL (≈ 33.5 to 67 µM); in assay [7] (naked eye, read-out: MIC visual detection, MRSA), 16 to 32 µg/mL (≈ 33.5 to 67 µM). The MIC was 2 µg/mL (≈ 4.19 µM) in assay [8] (95% growth inhibition, read-out: MIC spectrophotometric detection, A. baumannii); 2 µg/mL (≈ 4.19 µM) in [8] (naked eye, read-out: MIC visual detection, A. baumannii); 1 to 2 µg/mL (≈ 2.09 to 4.19 µM) in [9] (95% growth inhibition, read-out: MIC spectrophotometric detection, E. coli); 1 to 2 µg/mL (≈ 2.09 to 4.19 µM) in [9] (naked eye, read-out: MIC visual detection, E. coli).
